From ChEMBL document CHEMBL6078670, “Discovery of a potent and selective TRPC3 antagonist with neuroprotective effects” (Bioorg Med Chem, 2025)
In brackets after ≈: the same amount, converted by molar mass. Activity calls are given as the source filed them. The rule behind the calls is not given here.

Columns and labels:
[1] = target: Short transient receptor potential channel 1 (Rattus norvegicus) (UniProt Q9QX01); assay: Antagonist activity at rat TRPC1 expressed in HEK293 cells assessed as inhibition of carbachol-induced activity at 10 uM measured after 48 hrs by Whole-cell patch clamp electrophysiology; assay type: cell-based
Short transient receptor potential channel 1 (Rattus norvegicus), sequence (Q9QX01 whole entry): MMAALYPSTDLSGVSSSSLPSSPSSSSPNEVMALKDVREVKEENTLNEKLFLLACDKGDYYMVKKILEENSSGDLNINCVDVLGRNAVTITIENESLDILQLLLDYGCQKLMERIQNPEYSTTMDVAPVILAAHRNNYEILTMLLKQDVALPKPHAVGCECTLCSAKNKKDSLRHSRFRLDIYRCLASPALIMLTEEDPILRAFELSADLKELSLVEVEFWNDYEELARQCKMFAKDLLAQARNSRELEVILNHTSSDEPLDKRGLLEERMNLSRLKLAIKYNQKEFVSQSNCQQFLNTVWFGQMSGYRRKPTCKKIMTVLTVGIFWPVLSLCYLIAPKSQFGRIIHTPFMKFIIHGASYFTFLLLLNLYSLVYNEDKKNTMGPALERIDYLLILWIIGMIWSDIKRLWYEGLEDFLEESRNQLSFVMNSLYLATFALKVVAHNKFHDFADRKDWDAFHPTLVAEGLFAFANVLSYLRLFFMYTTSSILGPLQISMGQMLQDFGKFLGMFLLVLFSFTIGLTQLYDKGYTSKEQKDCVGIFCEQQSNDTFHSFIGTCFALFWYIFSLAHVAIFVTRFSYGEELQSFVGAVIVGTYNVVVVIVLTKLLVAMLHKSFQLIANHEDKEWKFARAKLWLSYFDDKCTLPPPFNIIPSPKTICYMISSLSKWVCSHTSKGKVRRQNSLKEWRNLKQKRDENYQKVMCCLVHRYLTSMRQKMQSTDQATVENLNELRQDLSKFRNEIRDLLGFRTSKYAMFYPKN

Hippocampal neurone [2] = assay: (§1) Rescuing beta-amyloid induced neuronal cell damage in Sprague-Dawley rat primary hippocampal cell culture (composed of 60% primary neuron, 20% microglia and 20% astrocyte) assessed as decrease in soluble oligomeric Abeta-containing media (7PA2 cells) induced synaptic toxicity at 100 nM; assay type: functional, cell-based
Hippocampal neurone [3] = assay: as §1, with “astrogliosis (GFAP)” for “synaptic toxicity”, “500” for “100”, “nM by immunostaining analysis” for “nM”; assay type: functional, cell-based
[4] = Cytotoxicity against Sprague-Dawley rat primary hippocampal cells at 100 nM; assay type: toxicity, cell-based; conditions: hippocampal neurone, 0.1 µM
[5] = target: T1, Short transient receptor potential channel 3 (Homo sapiens) (UniProt Q13507); assay: Antagonist activity at human TRPC3 expressed in HEK293 cells assessed as inhibition of carbachol-induced activity at 10 uM measured after 48 hrs by Whole-cell patch clamp electrophysiology relative to control; assay type: cell-based; conditions: filed as antagonist
T1 sequence (whole entry): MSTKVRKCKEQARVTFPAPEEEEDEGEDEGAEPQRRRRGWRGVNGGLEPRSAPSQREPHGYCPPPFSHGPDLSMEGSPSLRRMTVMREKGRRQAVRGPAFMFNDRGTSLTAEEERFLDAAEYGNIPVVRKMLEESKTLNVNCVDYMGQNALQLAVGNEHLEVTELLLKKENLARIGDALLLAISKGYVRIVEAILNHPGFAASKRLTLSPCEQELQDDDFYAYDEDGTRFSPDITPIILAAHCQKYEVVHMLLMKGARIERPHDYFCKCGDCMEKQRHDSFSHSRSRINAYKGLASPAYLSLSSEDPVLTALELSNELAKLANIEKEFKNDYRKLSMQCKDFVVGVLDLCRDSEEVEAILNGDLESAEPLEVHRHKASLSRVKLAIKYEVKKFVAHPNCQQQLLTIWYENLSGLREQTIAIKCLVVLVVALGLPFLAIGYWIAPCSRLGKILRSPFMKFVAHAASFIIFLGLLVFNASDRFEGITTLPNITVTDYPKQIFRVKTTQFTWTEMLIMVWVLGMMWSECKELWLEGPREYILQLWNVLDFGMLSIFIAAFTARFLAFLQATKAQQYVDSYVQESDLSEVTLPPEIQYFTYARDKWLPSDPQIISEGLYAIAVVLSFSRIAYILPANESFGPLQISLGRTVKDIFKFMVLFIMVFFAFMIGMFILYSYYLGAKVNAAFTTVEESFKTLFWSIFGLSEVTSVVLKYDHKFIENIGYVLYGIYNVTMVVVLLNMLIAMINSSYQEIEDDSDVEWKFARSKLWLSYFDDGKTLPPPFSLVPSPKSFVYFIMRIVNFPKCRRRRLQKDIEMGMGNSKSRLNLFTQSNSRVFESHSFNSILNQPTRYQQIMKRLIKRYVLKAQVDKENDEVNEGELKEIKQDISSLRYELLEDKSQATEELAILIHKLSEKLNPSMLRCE

Hippocampal neurone [6] = assay: as §1, with “functional synapses by measuring decrease in SynI clustering level” for “synaptic toxicity”; assay type: cell-based
Hippocampal neurone [7] = assay: as §1, with “functional synapses by measuring decrease in PSD95 clustering level” for “synaptic toxicity”; assay type: cell-based
[8] = Kinetic solubility of the compound in ph 7.4 PBS buffer measured after 24 hrs shaken by HPLC and UPLC system; assay type: physicochemical; conditions: read-out: Kinetic_solubility
Cytochrome P450 2C9 = Cytochrome P450 2C9 (Homo sapiens, UniProt P11712); assay: Inhibition of human liver microsomes CYP2C9 measured after 10 mins incubation by LC-MS analysis; assay type: ADME, Microsome
Cytochrome P450 2C9, sequence (P11712 whole entry): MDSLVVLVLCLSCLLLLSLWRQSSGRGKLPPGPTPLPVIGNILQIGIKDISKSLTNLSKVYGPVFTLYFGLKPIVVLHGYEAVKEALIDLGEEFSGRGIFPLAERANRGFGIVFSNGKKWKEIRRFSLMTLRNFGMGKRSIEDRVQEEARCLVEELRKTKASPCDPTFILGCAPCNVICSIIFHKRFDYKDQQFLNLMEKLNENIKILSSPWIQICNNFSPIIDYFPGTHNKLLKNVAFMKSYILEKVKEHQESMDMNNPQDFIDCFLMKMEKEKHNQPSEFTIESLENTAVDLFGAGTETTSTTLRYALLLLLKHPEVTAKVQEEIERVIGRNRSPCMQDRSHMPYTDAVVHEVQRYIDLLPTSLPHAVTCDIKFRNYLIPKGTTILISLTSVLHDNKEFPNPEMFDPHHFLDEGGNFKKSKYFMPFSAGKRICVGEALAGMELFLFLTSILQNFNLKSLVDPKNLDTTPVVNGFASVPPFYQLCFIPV

Cytochrome P450 3A4 = Cytochrome P450 3A4 (Homo sapiens, UniProt P08684); assay: Inhibition of human liver microsomes CYP3A4-M measured after 10 mins incubation by LC-MS analysis; assay type: ADME, Microsome
Cytochrome P450 3A4, sequence (P08684 whole entry): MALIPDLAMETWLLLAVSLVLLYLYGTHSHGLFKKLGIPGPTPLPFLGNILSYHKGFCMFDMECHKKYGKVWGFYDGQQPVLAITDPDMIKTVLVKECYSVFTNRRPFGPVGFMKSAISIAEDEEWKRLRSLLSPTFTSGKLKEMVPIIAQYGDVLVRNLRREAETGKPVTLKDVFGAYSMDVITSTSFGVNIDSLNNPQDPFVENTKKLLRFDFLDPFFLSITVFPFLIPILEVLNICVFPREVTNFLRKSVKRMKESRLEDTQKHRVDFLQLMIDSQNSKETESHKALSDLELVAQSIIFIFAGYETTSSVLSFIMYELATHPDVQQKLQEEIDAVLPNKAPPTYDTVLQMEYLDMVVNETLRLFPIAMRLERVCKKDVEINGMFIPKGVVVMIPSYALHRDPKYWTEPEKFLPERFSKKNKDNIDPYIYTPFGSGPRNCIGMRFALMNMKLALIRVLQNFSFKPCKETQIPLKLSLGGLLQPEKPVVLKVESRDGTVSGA

[9] = Metabolic stability in human liver microsomes assessed as half life measured up to 60 mins by LC-MS/MS analysis; assay type: ADME, Microsome; conditions: 1 h
[10] = target: Short transient receptor potential channel 1 (Mus musculus) (UniProt Q61056); assay: Antagonist activity at mouse TRPC1 expressed in HEK293 cells assessed as inhibition of carbachol-induced activity at 10 uM measured after 48 hrs by Whole-cell patch clamp electrophysiology; assay type: cell-based
Short transient receptor potential channel 1 (Mus musculus), sequence (Q61056 whole entry): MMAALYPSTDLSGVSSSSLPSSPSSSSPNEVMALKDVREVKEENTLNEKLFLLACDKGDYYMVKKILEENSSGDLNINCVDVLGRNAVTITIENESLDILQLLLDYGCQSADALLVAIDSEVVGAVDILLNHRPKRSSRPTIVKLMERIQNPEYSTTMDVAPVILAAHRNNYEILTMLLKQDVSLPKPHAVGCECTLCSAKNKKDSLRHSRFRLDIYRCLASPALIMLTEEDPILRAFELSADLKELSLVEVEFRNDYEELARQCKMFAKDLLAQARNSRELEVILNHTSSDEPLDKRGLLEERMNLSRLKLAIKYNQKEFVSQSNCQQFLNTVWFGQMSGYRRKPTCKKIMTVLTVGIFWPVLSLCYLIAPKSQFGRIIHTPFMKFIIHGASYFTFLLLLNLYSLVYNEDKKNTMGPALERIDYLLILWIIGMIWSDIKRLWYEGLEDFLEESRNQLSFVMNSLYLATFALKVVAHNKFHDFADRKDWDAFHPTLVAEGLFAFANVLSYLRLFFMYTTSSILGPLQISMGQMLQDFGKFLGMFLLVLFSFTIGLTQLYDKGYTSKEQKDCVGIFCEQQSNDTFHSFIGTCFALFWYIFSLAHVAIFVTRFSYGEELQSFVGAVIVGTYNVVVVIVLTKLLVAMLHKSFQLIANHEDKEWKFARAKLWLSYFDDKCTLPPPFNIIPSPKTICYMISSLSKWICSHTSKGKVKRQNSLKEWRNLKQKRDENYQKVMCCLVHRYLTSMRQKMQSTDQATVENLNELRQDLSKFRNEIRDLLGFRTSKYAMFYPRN

[11] = Metabolic stability in mouse liver microsomes assessed as intrinsic clearance measured up to 60 mins by LC-MS/MS analysis; assay type: ADME, Microsome; conditions: 1 h
[12] = target: T2, Short transient receptor potential channel 6 (Homo sapiens) (UniProt Q9Y210); assay: Antagonist activity at human TRPC6 expressed in HEK293 cells assessed as inhibition of carbachol-induced activity at 10 uM measured after 48 hrs by Whole-cell patch clamp electrophysiology; assay type: cell-based
T2 sequence (whole entry): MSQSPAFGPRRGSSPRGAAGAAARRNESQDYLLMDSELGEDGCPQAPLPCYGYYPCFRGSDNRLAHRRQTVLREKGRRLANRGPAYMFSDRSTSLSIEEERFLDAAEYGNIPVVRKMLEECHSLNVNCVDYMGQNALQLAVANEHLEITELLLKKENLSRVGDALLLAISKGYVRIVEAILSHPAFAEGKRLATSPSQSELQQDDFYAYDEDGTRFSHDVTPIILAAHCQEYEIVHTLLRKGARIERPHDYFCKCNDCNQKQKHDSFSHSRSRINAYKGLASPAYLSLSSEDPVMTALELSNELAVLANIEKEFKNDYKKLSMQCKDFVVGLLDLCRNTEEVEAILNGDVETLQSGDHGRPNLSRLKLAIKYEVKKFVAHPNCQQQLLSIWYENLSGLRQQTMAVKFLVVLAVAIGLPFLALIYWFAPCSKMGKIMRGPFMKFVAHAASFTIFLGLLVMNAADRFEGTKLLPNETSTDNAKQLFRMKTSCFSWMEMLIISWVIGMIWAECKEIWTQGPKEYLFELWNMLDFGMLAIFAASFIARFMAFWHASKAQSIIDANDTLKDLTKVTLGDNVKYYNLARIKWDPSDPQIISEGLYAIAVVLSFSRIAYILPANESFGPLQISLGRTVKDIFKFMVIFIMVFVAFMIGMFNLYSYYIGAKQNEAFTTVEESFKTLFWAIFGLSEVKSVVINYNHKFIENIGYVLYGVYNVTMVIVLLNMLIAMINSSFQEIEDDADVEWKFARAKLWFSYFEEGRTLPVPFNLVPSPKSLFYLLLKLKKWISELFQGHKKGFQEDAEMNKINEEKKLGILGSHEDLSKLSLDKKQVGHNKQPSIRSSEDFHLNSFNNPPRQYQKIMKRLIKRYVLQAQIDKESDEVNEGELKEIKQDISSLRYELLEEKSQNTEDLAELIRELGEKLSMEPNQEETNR

[13] = target: Transient receptor potential cation channel subfamily M member 8 (Rattus norvegicus) (UniProt Q8R455); assay: Antagonist activity at rat TRPM8 expressed in HEK293 cells assessed as inhibition of carbachol-induced activity at 10 uM measured after 48 hrs by Whole-cell patch clamp electrophysiology; assay type: cell-based
Transient receptor potential cation channel subfamily M member 8 (Rattus norvegicus), sequence (Q8R455 whole entry, looked up): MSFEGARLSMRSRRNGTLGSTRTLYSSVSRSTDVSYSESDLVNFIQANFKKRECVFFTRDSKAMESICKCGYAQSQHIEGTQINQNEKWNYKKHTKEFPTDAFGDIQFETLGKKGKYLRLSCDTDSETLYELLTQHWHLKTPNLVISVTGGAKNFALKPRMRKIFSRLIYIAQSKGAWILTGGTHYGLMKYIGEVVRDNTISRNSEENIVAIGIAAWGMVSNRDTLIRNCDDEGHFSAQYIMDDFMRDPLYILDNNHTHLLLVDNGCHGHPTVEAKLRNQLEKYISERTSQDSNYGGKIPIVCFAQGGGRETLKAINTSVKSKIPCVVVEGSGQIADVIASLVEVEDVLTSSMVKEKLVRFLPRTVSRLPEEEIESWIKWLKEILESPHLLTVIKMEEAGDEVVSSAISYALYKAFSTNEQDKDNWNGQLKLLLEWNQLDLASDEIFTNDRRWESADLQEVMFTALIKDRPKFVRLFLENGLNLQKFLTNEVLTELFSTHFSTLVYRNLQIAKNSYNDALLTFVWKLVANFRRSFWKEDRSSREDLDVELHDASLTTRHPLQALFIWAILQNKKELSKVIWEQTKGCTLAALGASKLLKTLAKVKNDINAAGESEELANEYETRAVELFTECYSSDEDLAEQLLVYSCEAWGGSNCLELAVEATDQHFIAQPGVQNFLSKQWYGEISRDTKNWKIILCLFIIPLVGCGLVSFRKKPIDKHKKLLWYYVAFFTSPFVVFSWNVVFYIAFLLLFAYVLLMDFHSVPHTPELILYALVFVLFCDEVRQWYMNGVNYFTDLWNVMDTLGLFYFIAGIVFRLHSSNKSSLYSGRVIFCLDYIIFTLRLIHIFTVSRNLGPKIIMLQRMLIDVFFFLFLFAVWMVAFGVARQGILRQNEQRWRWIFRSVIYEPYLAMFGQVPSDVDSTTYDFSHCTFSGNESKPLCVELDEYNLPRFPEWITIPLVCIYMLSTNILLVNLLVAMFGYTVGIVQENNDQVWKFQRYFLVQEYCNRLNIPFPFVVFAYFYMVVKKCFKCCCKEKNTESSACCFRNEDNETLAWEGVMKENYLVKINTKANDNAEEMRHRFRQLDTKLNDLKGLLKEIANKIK

Activity [1]: inactive | inhibition [5]: > 97% | solubility kinetic at 24 h [8]: 0.2 µM (≈ 0.0862 µg/mL) | IC50 (Cytochrome P450 2C9): > 50 µM | IC50 (Cytochrome P450 3A4): > 50 µM | t1/2 [9]: 3.17 h | Activity [10]: inactive | CLH [11]: 33 µL/min/mg | Activity [12]: inactive | Activity [13]: inactive
Structure (SMILES): CCNCc1cnn(-c2ccc(-n3ccc(Cl)c(Cl)c3=O)cc2)c1C(F)(F)F
Activity (Hippocampal neurone [2]): Active | Activity (Hippocampal neurone [3]): Active | Activity [4]: Non-toxic | Activity (Hippocampal neurone [6]): Active | Activity (Hippocampal neurone [7]): Active
